The target of the assay is methionyl-tRNA synthetase (Trypanosoma brucei brucei). Kind of assay: T. brucei MetRS inhibitors, orthogonal readout, late-stage follow-up, orthogonal assay for T. brucei MetRS inhibitor project, biochemical, fluorescence polarization, dose response, round 1 (AID 743154). A general note: Fluorescence polarisation rises when a labelled molecule tumbles more slowly, as on binding a larger partner.

Molecules are shown by their SMILES. Activity calls are given as the source filed them. The rule behind the calls is not given here. Where only a bound is given, the exact number is not on record here.

One may read the IC50 as the concentration needed to halve the response being measured. `Cc1cccc2[nH]c(C3CCCN(C(=O)c4cccc5cccnc45)C3)nc12` (stereo unspecified): the IC50 is > 39.5 µM (inactive).
With `O=C(Cn1cc(C(=O)c2ccco2)c2ccccc21)Nc1cccc(C(F)(F)F)c1`, the IC50 was 2.92 µM.
The figure for `COCCc1nc2ccc(C(=O)NCCc3nc4ccc(OC)cc4[nH]3)cc2o1` is > 39.5 µM (inactive); for `CCN(CC)C(=O)C(=O)c1cn(CC(=O)N(CC)c2ccccc2)c2ccccc12` it is > 39.5 µM (inactive); for `Cn1c(CCNC(=O)c2ccc(Cl)cc2)nc2ccccc21` it is > 39.5 µM (inactive).
`CC(=O)N(CCc1ccccc1)C1CC(=O)N(c2ccc(Cl)cc2)C1=O` (stereo unspecified): the IC50 was > 39.5 µM (inactive).
Turning to `COc1ccc(CCN(C(=S)Nc2ccccc2)C2CC(=O)N(c3ccc(Cl)cc3)C2=O)cc1` (stereo unspecified), the IC50 was 0.676 µM.
Turning to `O=C(C(=O)N1CCOCC1)c1cn(CC(=O)N2CCCc3ccccc32)c2ccccc12`, the IC50 was > 13.2 µM (inactive).
As to `Cc1cc2cc(C(=O)N3CCCC(c4nc5ccccc5[nH]4)C3)ccc2o1` (stereo unspecified), the IC50 is > 39.5 µM (inactive).
Consider `COc1ccc(CCN(C(=O)c2cccc(F)c2)C2CC(=O)N(c3ccc(Br)cc3)C2=O)cc1` (stereo unspecified), for which the IC50 is > 119 µM (inactive).
In the case of `O=C1CC(NCCc2ccccc2)C(=O)N1c1ccc(Br)cc1` (stereo unspecified), the IC50 was > 119 µM (inactive).
The entry for `O=C(CSC1CC(=O)N(c2cccc(Cl)c2)C1=O)Nc1ccc(Br)cc1` (stereo unspecified) is “inactive”.
As for `CC1Cc2ccccc2N1C(=O)Cn1cc(C(=O)C(=O)N2CCOCC2)c2ccccc21` (stereo unspecified), the IC50 was > 119 µM (inactive).
In the case of `O=C(Cn1cc(C(=O)C(=O)N2CCCC2)c2ccccc21)Nc1ccccc1`, the IC50 was > 119 µM (inactive).
As for `O=C(Nc1ccc(F)c(Cl)c1)C1CC(=O)n2c(nc3ccccc32)N1` (stereo unspecified), the 50% inhibitory concentration (IC50) is 1.77 µM.
As to `COc1cccc(NC(=O)C2CC(=O)n3c(nc4ccccc43)N2)c1` (stereo unspecified), the IC50 is > 13.2 µM (inactive).
Then `CCc1ccc2c(c1)c1nnc(SCC(=O)Nc3ccc4c(c3)OCO4)nc1n2C`, with > 119 µM (inactive); and `O=C(Cn1cc(C(=O)C(=O)N2CCOCC2)c2ccccc21)NCc1ccccc1`, with > 119 µM (inactive).
The figure for `COc1ccc(NC(=O)CSc2nnc3c4cc(C)ccc4n(C)c3n2)cc1` is > 119 µM (inactive).
Then `Cc1ccc(C(=O)NCCc2nc3ccccc3[nH]2)cc1[N+](=O)[O-]`, with 3.55 µM; and `CC(C)c1nc2ccc(C(=O)N(C)CCc3nc4ccc(F)cc4[nH]3)cc2o1`, with > 119 µM (inactive).
`CCc1ccc2[nH]c3nc(SCC(=O)NCc4cccc(OC)c4)nnc3c2c1`: the IC50 was > 39.5 µM (inactive).
Take `O=C(CSc1nnc2c(n1)[nH]c1ccc(Br)cc12)NCc1ccccc1`: the IC50 was 0.666 µM.
Then `Cc1cccc2[nH]c(CCN(C)C(=O)c3cccc(C4CCNC4)c3)nc12` (stereo unspecified), with > 119 µM (inactive); and `CCN(CCc1nc2ccc(C)cc2[nH]1)C(=O)c1ccc2ncccc2c1`, with > 119 µM (inactive).
Then `CCN(CC)C(=O)C(=O)c1cn(CC(=O)Nc2cccc(C(F)(F)F)c2)c2ccccc12`, with 0.167 µM.
Take `CCCCn1c(CCNC(=O)c2ccc(F)cc2)nc2ccccc21`: the IC50 was > 39.5 µM (inactive).
The figure for `Cc1cccc(C(=O)NCCc2nc3ccccc3n2CCOc2ccccc2)c1` is > 39.5 µM (inactive); for `O=C(Cn1cc(C(=O)C2CC2)c2ccccc21)Nc1cccc(C(F)(F)F)c1` it is > 39.5 µM (inactive); for `CCN(CC)C(=O)C(=O)c1cn(CC(=O)Nc2cccc(OC)c2)c2ccccc12` it is 3.5 µM.
Then `Cc1ccc(CNC(=O)CSc2nnc3c(n2)[nH]c2ccc(C)cc23)cc1`, with “inactive”.
As to `COc1ccc(NC(=O)C2CC(=O)n3c(nc4ccccc43)N2)cc1` (stereo unspecified), the IC50 was > 119 µM (inactive).
Then `O=C(Cn1cc(C(=O)C(=O)N2CCOCC2)c2ccccc21)NCC1CCCO1` (stereo unspecified), with > 119 µM (inactive); and `Cc1cccc(NC(=O)C2CC(=O)n3c(nc4ccccc43)N2)c1` (stereo unspecified), with > 39.5 µM (inactive); and `CCC(=O)c1cn(CC(=O)Nc2cccc(C(F)(F)F)c2)c2ccccc12`, with > 39.5 µM (inactive).
Turning to `CCN(CC)C(=O)C(=O)c1cn(CC(=O)N2CCCc3ccccc32)c2ccccc12`, the IC50 was > 119 µM (inactive).
The entry for `O=C(Cn1cc(C(=O)c2ccccc2)c2ccccc21)Nc1cccc(C(F)(F)F)c1` is “inactive”; for `O=C(NCCc1nc2ccccc2[nH]1)c1ccc(Cl)cc1Cl` it is 1.35 µM.
With `O=C(NCCc1nc2ccccc2[nH]1)c1ccc(Cl)cc1`, the IC50 was 5.37 µM.
Take `CCN(C(=O)Cn1cc(C(=O)C(=O)N2CCOCC2)c2ccccc21)c1ccccc1`: the IC50 is > 119 µM (inactive).
Regarding `COc1ccccc1NC(=O)Cn1cc(C(=O)C(=O)N2CCOCC2)c2ccccc21`, the IC50 is > 119 µM (inactive).
As to `CC(=O)N(CCc1ccccc1)C1CC(=O)N(c2ccc(Br)cc2)C1=O` (stereo unspecified), the IC50 was > 39.5 µM (inactive).
For `O=C(NCCc1nc2ccccc2[nH]1)c1c(F)cccc1F`, the IC50 is > 119 µM (inactive).
Then `COc1ccccc1NC(=O)CSc1nnc2c(n1)[nH]c1ccc(C)cc12`, with “inactive”; and `O=C(NCCc1nc2ccccc2[nH]1)c1ccc(Cl)c(Cl)c1`, with 0.901 µM; and `CCN(CC)C(=O)C(=O)c1cn(CC(=O)Nc2ccccc2OC)c2ccccc12`, with > 119 µM (inactive).
As for `CNC(=S)N(CCc1ccccc1)C1CC(=O)N(c2ccc(Br)cc2)C1=O` (stereo unspecified), the half-inhibitory concentration (IC50) was 0.326 µM.
As for `O=C(Cn1cc(C(=O)COc2ccccc2)c2ccccc21)Nc1cccc(C(F)(F)F)c1`, the IC50 was > 39.5 µM (inactive).
For the molecule `CC(=O)c1cn(CC(=O)Nc2cccc(C(F)(F)F)c2)c2ccccc12`, the IC50 is > 39.5 µM (inactive).
For `Cc1ccc2[nH]c3nc(SCC(=O)Nc4ccc(C(F)(F)F)cc4)nnc3c2c1`, the IC50 was > 119 µM (inactive).
Then `Cc1ccc(C(=O)NCCc2nc3ccccc3[nH]2)cc1C`, with > 13.2 µM (inactive).

The values are drawn from PubChem BioAssay AID743154 (The Scripps Research Institute Molecular Screening Center, 2013).
